The values that follow come from PMC5218480 (PLoS ONE, 2017).

The subject of this experiment is MV-4-11 cells. In words: Gene expression microarray analysis (Affymetrix PrimeView) and GSEA. Type of experiment: cell-based, human. The arrangement: RFU PODN (11730768_x_at) / Fold change /veh PODN (11730768_x_at) / RFU LINC00158 (11744669_a_at) / Fold change /veh LINC00158 (11744669_a_at) / RFU DUSP10 (11751237_a_at) / Fold change /veh DUSP10 (11751237_a_at) / RFU ID3 (11757404_x_at) / Fold change /veh ID3 (11757404_x_at) / RFU PLEKHG5 (11737974_s_at) / Fold change /veh PLEKHG5 (11737974_s_at) / RFU LRRC4B (11730491_at) / Fold change /veh LRRC4B (11730491_at) / RFU GIMAP4 (11747438_a_at) / Fold change /veh GIMAP4 (11747438_a_at) / RFU KRT8 (11758183_x_at) / Fold change /veh KRT8 (11758183_x_at) / RFU CNN1 (11734310_a_at) / Fold change /veh CNN1 (11734310_a_at) / RFU VPS37D (11726825_at) / Fold change /veh VPS37D (11726825_at) / RFU C10orf10 (11716522_x_at) / Fold change /veh C10orf10 (11716522_x_at) / RFU KIR2DL2 /// KIR2DL4 /// KIR2DL5A /// KIR2DL5B /// KIR2DS1 /// KIR2DS2 /// KIR2DS3 /// KIR2DS4 /// KIR3DL3 /// KIR3DL3 /// KIR3DS1 (11738374_at) / Fold change /veh KIR2DL2 /// KIR2DL4 /// KIR2DL5A /// KIR2DL5B /// KIR2DS1 /// KIR2DS2 /// KIR2DS3 /// KIR2DS4 /// KIR3DL3 /// KIR3DL3 /// KIR3DS1 (11738374_at) / RFU C1QL1 (11718748_at) / Fold change /veh C1QL1 (11718748_at) / RFU TMPRSS4 (11747572_a_at) / Fold change /veh TMPRSS4 (11747572_a_at) / RFU HAMP (11756126_x_at) / Fold change /veh HAMP (11756126_x_at) / RFU RNFT2 (11725882_a_at) / Fold change /veh RNFT2 (11725882_a_at) / RFU NR4A2 (11747474_a_at) / Fold change /veh NR4A2 (11747474_a_at) / RFU ABCC12 (11746883_a_at) / Fold change /veh ABCC12 (11746883_a_at) / RFU TMEM136 (11760407_x_at) / Fold change /veh TMEM136 (11760407_x_at) / RFU CLDN22 /// WWC2 (11732394_at) / Fold change /veh CLDN22 /// WWC2 (11732394_at) / RFU HLA-DPB1 (11760878_x_at) / Fold change /veh HLA-DPB1 (11760878_x_at) / RFU SPINT1 (11716480_a_at) / Fold change /veh SPINT1 (11716480_a_at) / RFU GAP43 (11754022_s_at) / Fold change /veh GAP43 (11754022_s_at) / RFU A4GNT (11735810_at) / Fold change /veh A4GNT (11735810_at) / RFU PRB3 (11715151_x_at) / Fold change /veh PRB3 (11715151_x_at) / RFU TUBB4B (11761932_at) / Fold change /veh TUBB4B (11761932_at) / RFU CAPN14 (11732068_a_at) / Fold change /veh CAPN14 (11732068_a_at) / RFU TMCC2 (11721928_a_at) / Fold change /veh TMCC2 (11721928_a_at) / RFU IRGQ (11745062_a_at) / Fold change /veh IRGQ (11745062_a_at) / RFU FAM174B (11720279_a_at) / Fold change /veh FAM174B (11720279_a_at) / RFU TMPRSS4 (11748680_a_at) / Fold change /veh TMPRSS4 (11748680_a_at) / RFU FAM212B (11763350_a_at) / Fold change /veh FAM212B (11763350_a_at) / RFU PLEKHG5 (11743358_a_at) / Fold change /veh PLEKHG5 (11743358_a_at) / RFU ZSCAN30 (11745921_a_at) / Fold change /veh ZSCAN30 (11745921_a_at) / RFU CMKLR1 (11741424_a_at) / Fold change /veh CMKLR1 (11741424_a_at) / RFU LOC101060620 /// MAPK8IP1 (11723275_at) / Fold change /veh LOC101060620 /// MAPK8IP1 (11723275_at) / RFU SPTSSB (11747773_x_at) / Fold change /veh SPTSSB (11747773_x_at) / RFU PRSS12 (11739890_at) / Fold change /veh PRSS12 (11739890_at) / RFU BIN1 (11741810_x_at) / Fold change /veh BIN1 (11741810_x_at) / RFU WNT11 (11732464_a_at) / Fold change /veh WNT11 (11732464_a_at) / RFU C10orf10 (11716521_a_at) / Fold change /veh C10orf10 (11716521_a_at) / RFU C5orf56 (11738089_at) / Fold change /veh C5orf56 (11738089_at) / RFU CYB561 (11721691_x_at) / Fold change /veh CYB561 (11721691_x_at) / RFU ANKRD19P (11752326_a_at) / Fold change /veh ANKRD19P (11752326_a_at) / RFU OR2T12 /// OR2T33 /// OR2T8 (11738714_s_at) / Fold change /veh OR2T12 /// OR2T33 /// OR2T8 (11738714_s_at) / RFU VCAN (11748164_a_at) / Fold change /veh VCAN (11748164_a_at) / RFU JSRP1 (11732532_at) / Fold change /veh JSRP1 (11732532_at) / RFU KRTAP10-11 (11738290_x_at) / Fold change /veh KRTAP10-11 (11738290_x_at) / RFU MYO3A (11730013_a_at) / Fold change /veh MYO3A (11730013_a_at) / RFU EBF3 (11725865_a_at) / Fold change /veh EBF3 (11725865_a_at) / RFU CAMK2N1 (11719241_x_at) / Fold change /veh CAMK2N1 (11719241_x_at) / RFU C5orf56 (11738088_a_at) / Fold change /veh C5orf56 (11738088_a_at) / RFU OLFML3 (11715873_a_at) / Fold change /veh OLFML3 (11715873_a_at) / RFU LOC100653217 /// NTM (11731650_a_at) / Fold change /veh LOC100653217 /// NTM (11731650_a_at) / RFU MAPK11 (11762145_a_at) / Fold change /veh MAPK11 (11762145_a_at) / RFU FIZ1 (11724087_x_at) / Fold change /veh FIZ1 (11724087_x_at) / RFU OASL (11726364_x_at) / Fold change /veh OASL (11726364_x_at) / RFU SOX15 (11748057_x_at) / Fold change /veh SOX15 (11748057_x_at) / RFU CD79A (11719716_a_at) / Fold change /veh CD79A (11719716_a_at) / RFU HIST1H1D (11736915_at) / Fold change /veh HIST1H1D (11736915_at) / RFU CASKIN2 (11723855_a_at) / Fold change /veh CASKIN2 (11723855_a_at) / RFU LOC730098 (11760151_x_at) / Fold change /veh LOC730098 (11760151_x_at) / RFU OR4N2 (11742367_at) / Fold change /veh OR4N2 (11742367_at) / RFU PRRT2 (11749266_a_at) / Fold change /veh PRRT2 (11749266_a_at) / RFU SNX32 (11753110_a_at) / Fold change /veh SNX32 (11753110_a_at) / RFU CDHR5 (11726645_a_at) / Fold change /veh CDHR5 (11726645_a_at) / RFU RCAN1 (11760418_a_at) / Fold change /veh RCAN1 (11760418_a_at) / RFU FAM167A (11723789_a_at) / Fold change /veh FAM167A (11723789_a_at) / RFU FAM26E (11764081_at) / Fold change /veh FAM26E (11764081_at) / RFU ISYNA1 (11749810_s_at) / Fold change /veh ISYNA1 (11749810_s_at) / RFU ACY1 (11761880_at) / Fold change /veh ACY1 (11761880_at) / RFU 11764098_at / Fold change /veh 11764098_at / RFU SAMD14 (11745864_x_at) / Fold change /veh SAMD14 (11745864_x_at) / RFU NPB (11741838_a_at) / Fold change /veh NPB (11741838_a_at) / RFU TMPRSS6 (11731388_a_at) / Fold change /veh TMPRSS6 (11731388_a_at) / RFU KRTAP10-2 (11738614_at) / Fold change /veh KRTAP10-2 (11738614_at) / RFU ARHGAP8 /// PRR5-ARHGAP8 (11727945_x_at) / Fold change /veh ARHGAP8 /// PRR5-ARHGAP8 (11727945_x_at) / RFU KRTAP5-7 /// NADSYN1 (11734609_at) / Fold change /veh KRTAP5-7 /// NADSYN1 (11734609_at) / RFU RASL12 (11751679_a_at) / Fold change /veh RASL12 (11751679_a_at) / RFU CDKN2B (11736163_a_at) / Fold change /veh CDKN2B (11736163_a_at) / RFU PRF1 (11729649_at) / Fold change /veh PRF1 (11729649_at) / RFU, ZNF638 /// ZNF638-IT1 / Fold change vs veh, ZNF638 /// ZNF638-IT1 / RFU, PANK3 / Fold change vs veh, PANK3 / RFU, SH3YL1 / Fold change vs veh, SH3YL1 / RFU, ZEB2 / Fold change vs veh, ZEB2 / RFU, NRIP1 / Fold change vs veh, NRIP1 / RFU, PTTG1IP / Fold change vs veh, PTTG1IP / RFU, CAPN2 / Fold change vs veh, CAPN2 / RFU, MED14 / Fold change vs veh, MED14 / RFU, SNORA58 / Fold change vs veh, SNORA58 / RFU, C1orf63 / Fold change vs veh, C1orf63 / RFU, LRRFIP1 / Fold change vs veh, LRRFIP1 / RFU, NDUFAF7 / Fold change vs veh, NDUFAF7 / RFU, SLC12A2 / Fold change vs veh, SLC12A2 / RFU, IBTK / Fold change vs veh, IBTK / RFU, ESF1 / Fold change vs veh, ESF1 / Fold change vs veh, TMEM50B / RFU, TAOK1 / Fold change vs veh, TAOK1 / RFU, ACBD3 / Fold change vs veh, ACBD3 / RFU, TMA16 / Fold change vs veh, TMA16 / RFU, RWDD3 / Fold change vs veh, RWDD3 / RFU, BCAT1 / Fold change vs veh, BCAT1 / RFU, EDEM3 / Fold change vs veh, EDEM3 / RFU, TMEM33 / Fold change vs veh, TMEM33 / RFU, WDR75 / Fold change vs veh, WDR75 / RFU, AHCTF1 / Fold change vs veh, AHCTF1 / RFU, TFRC / Fold change vs veh, TFRC / RFU, ZDHHC17 / Fold change vs veh, ZDHHC17 / RFU, NOM1 / Fold change vs veh, NOM1 / RFU, ARL8B / Fold change vs veh, ARL8B / RFU, ZBTB11 / Fold change vs veh, ZBTB11 / RFU, TAMM41 / Fold change vs veh, TAMM41 / RFU, KIAA1704 /// LOC100996395 / Fold change vs veh, KIAA1704 /// LOC100996395 / RFU, ING1 / Fold change vs veh, ING1 / RFU, TRMT61B / Fold change vs veh, TRMT61B / RFU, FUBP3 / Fold change vs veh, FUBP3 / RFU, TP53 / Fold change vs veh, TP53 / RFU, TNKS2 / Fold change vs veh, TNKS2 / RFU, ZFP14 / Fold change vs veh, ZFP14 / RFU, ACTR2 / Fold change vs veh, ACTR2 / RFU, PPP3R1 / Fold change vs veh, PPP3R1 / RFU, PIK3R1 / Fold change vs veh, PIK3R1 / RFU, HNRNPA1 / Fold change vs veh, HNRNPA1 / RFU, RNF170 / Fold change vs veh, RNF170 / RFU, ZNF28 / Fold change vs veh, ZNF28 / RFU, RNGTT / Fold change vs veh, RNGTT / RFU, OGT / Fold change vs veh, OGT / RFU, BRD1 / Fold change vs veh, BRD1 / RFU, MARS / Fold change vs veh, MARS / RFU, ZNF655 / Fold change vs veh, ZNF655 / RFU, FAHD1 / Fold change vs veh, FAHD1 / RFU, BDP1 / Fold change vs veh, BDP1 / RFU, LRRCC1 / Fold change vs veh, LRRCC1 / RFU, ARID1A / Fold change vs veh, ARID1A / RFU, ZNF146 / Fold change vs veh, ZNF146 / RFU, ZNF330 / Fold change vs veh, ZNF330 / RFU, GPN3 / Fold change vs veh, GPN3 / RFU, C9orf123 / Fold change vs veh, C9orf123 / RFU, N4BP2L2 / Fold change vs veh, N4BP2L2 / RFU, ARFIP1 / Fold change vs veh, ARFIP1 / RFU, FAM179B / Fold change vs veh, FAM179B / RFU, BCL10 / Fold change vs veh, BCL10 / RFU, UHRF1BP1L / Fold change vs veh, UHRF1BP1L / RFU, BET1 / Fold change vs veh, BET1 / RFU, CNOT2 / Fold change vs veh, CNOT2 / RFU, ZNF268 / Fold change vs veh, ZNF268 / Fold change vs veh, ZNF507 / RFU, DGCR2 / Fold change vs veh, DGCR2 / RFU, WDSUB1 / Fold change vs veh, WDSUB1 / Fold change vs veh, HSP90B1 /// MIR3652 / RFU, ADSS / Fold change vs veh, ADSS / RFU, GK / Fold change vs veh, GK / RFU, ZNF148 / Fold change vs veh, ZNF148 / RFU, TAF9 / Fold change vs veh, TAF9 / RFU, SLC1A5 / Fold change vs veh, SLC1A5 / RFU, SLMO2 / Fold change vs veh, SLMO2 / RFU, ABCC4 / Fold change vs veh, ABCC4 / RFU, LOC101060439 /// RAP1B / Fold change vs veh, LOC101060439 /// RAP1B / RFU, RFX7 / Fold change vs veh, RFX7 / RFU, GTPBP10 / Fold change vs veh, GTPBP10 / RFU, CNEP1R1 / Fold change vs veh, CNEP1R1 / RFU, BIVM-ERCC5 /// ERCC5 / Fold change vs veh, BIVM-ERCC5 /// ERCC5 / RFU, ILF3 / Fold change vs veh, ILF3 / RFU 11762660_at / Fold change /veh 11762660_at / RFU VCAN (11757783_s_at) / Fold change /veh VCAN (11757783_s_at) / RFU DDX43 (11728927_at) / Fold change /veh DDX43 (11728927_at) / RFU KRT8 (11758188_x_at) / Fold change /veh KRT8 (11758188_x_at) / RFU NKD1 (11759106_at) / Fold change /veh NKD1 (11759106_at) / RFU SRD5A1 (11742802_a_at) / Fold change /veh SRD5A1 (11742802_a_at) / RFU TPSAB1 /// TPSB2 (11721975_s_at) / Fold change /veh TPSAB1 /// TPSB2 (11721975_s_at) / RFU GSTM3 (11746129_a_at) / Fold change /veh GSTM3 (11746129_a_at) / RFU IL23R (11737362_x_at) / Fold change /veh IL23R (11737362_x_at) / RFU TMEM51 (11727254_a_at) / Fold change /veh TMEM51 (11727254_a_at) / RFU PIWIL2 (11732686_x_at) / Fold change /veh PIWIL2 (11732686_x_at) / RFU ORM1 (11744905_x_at) / Fold change /veh ORM1 (11744905_x_at) / RFU CCDC152 (11743942_at) / Fold change /veh CCDC152 (11743942_at) / RFU ECM1 (11717891_a_at) / Fold change /veh ECM1 (11717891_a_at) / RFU IL23R (11748794_a_at) / Fold change /veh IL23R (11748794_a_at) / RFU TNFAIP8L3 (11732012_x_at) / Fold change /veh TNFAIP8L3 (11732012_x_at) / RFU MBOAT4 (11741988_at) / Fold change /veh MBOAT4 (11741988_at) / RFU 11764193_at / Fold change /veh 11764193_at / RFU TMEM53 (11763286_at) / Fold change /veh TMEM53 (11763286_at) / RFU MAGEB2 (11727129_at) / Fold change /veh MAGEB2 (11727129_at) / RFU TMEM200A (11744735_a_at) / Fold change /veh TMEM200A (11744735_a_at) / RFU CCDC152 (11751479_a_at) / Fold change /veh CCDC152 (11751479_a_at) / RFU FAM211A (11726209_a_at) / Fold change /veh FAM211A (11726209_a_at) / RFU RGS16 (11746705_a_at) / Fold change /veh RGS16 (11746705_a_at) / RFU VCAN (11755009_s_at) / Fold change /veh VCAN (11755009_s_at) / RFU RHOB (11743442_s_at) / Fold change /veh RHOB (11743442_s_at) / RFU RGS16 (11720943_a_at) / Fold change /veh RGS16 (11720943_a_at) / RFU RGS16 (11720944_at) / Fold change /veh RGS16 (11720944_at) / RFU, VPS4B / Fold change vs veh, VPS4B / RFU, CREB1 / Fold change vs veh, CREB1 / RFU, DNAJC13 / Fold change vs veh, DNAJC13 / RFU, GNAQ / Fold change vs veh, GNAQ / RFU, CDK5R1 / Fold change vs veh, CDK5R1 / RFU, ZRANB3 / Fold change vs veh, ZRANB3 / RFU, CUL4A / Fold change vs veh, CUL4A / RFU, CCNY / Fold change vs veh, CCNY / RFU, UFL1 / Fold change vs veh, UFL1 / RFU, COG3 / Fold change vs veh, COG3 / RFU, DIAPH2 / Fold change vs veh, DIAPH2 / RFU, SKA2 / Fold change vs veh, SKA2 / RFU, AFF3 / Fold change vs veh, AFF3 / RFU, LMF1 / Fold change vs veh, LMF1 / RFU, IPO11 / Fold change vs veh, IPO11 / RFU, DFFB / Fold change vs veh, DFFB / RFU, FOXP1 / Fold change vs veh, FOXP1 / RFU, CARD8 / Fold change vs veh, CARD8 / RFU, STRN3 / Fold change vs veh, STRN3 / RFU, ADK / Fold change vs veh, ADK / RFU, RASSF2 / Fold change vs veh, RASSF2 / RFU, WIPF1 / Fold change vs veh, WIPF1 / RFU, LARP1B / Fold change vs veh, LARP1B / RFU, RASA1 / Fold change vs veh, RASA1 / RFU, RB1 / Fold change vs veh, RB1 / RFU, PPFIA1 / Fold change vs veh, PPFIA1 / RFU, MAT2A / Fold change vs veh, MAT2A / RFU, CCT5 / Fold change vs veh, CCT5 / RFU, WDR92 / Fold change vs veh, WDR92 / RFU, CUX1 / Fold change vs veh, CUX1 / RFU, TTC7A / Fold change vs veh, TTC7A / RFU, TMEM135 / Fold change vs veh, TMEM135 / RFU, DEPTOR / Fold change vs veh, DEPTOR / RFU, CPM / Fold change vs veh, CPM / RFU, DNAJB6 / Fold change vs veh, DNAJB6 / RFU, CACNA2D3 / Fold change vs veh, CACNA2D3 / RFU, DTX4 / Fold change vs veh, DTX4 / RFU, TFCP2 / Fold change vs veh, TFCP2 / RFU, GMCL1 /// GMCL1P1 / Fold change vs veh, GMCL1 /// GMCL1P1 / RFU, AEBP2 / Fold change vs veh, AEBP2 / RFU, SNHG1 /// SNORD22 /// SNORD25 /// SNORD26 /// SNORD27 /// SNORD28 /// SNORD29 /// SNORD31 / Fold change vs veh, SNHG1 /// SNORD22 /// SNORD25 /// SNORD26 /// SNORD27 /// SNORD28 /// SNORD29 /// SNORD31 / Fold change (Aza/veh), C12orf56 (ProbeSet 11735607_a_at) / Fold change (ACY-1035/veh), C12orf56 (ProbeSet 11735607_a_at) / Fold change (Aza/veh), FGFR1OP (ProbeSet 11751329_s_at) / Fold change (ACY-1035/veh), FGFR1OP (ProbeSet 11751329_s_at) / Fold change (Aza/veh), VPS36 (ProbeSet 11739960_a_at) / Fold change (ACY-1035/veh), VPS36 (ProbeSet 11739960_a_at) / RFU SYPL1 (11715823_x_at) / Fold change /veh SYPL1 (11715823_x_at) / RFU IGFBP7 (11715501_s_at) / Fold change /veh IGFBP7 (11715501_s_at) / RFU REEP3 (11722064_at) / Fold change /veh REEP3 (11722064_at) / RFU IGLL1 (11728026_x_at) / Fold change /veh IGLL1 (11728026_x_at): dose or concentration left out as unconfirmed. Particulars: MV-4-11 cells, 48 hours.

Take `Nc1ncn([C@@H]2O[C@H](CO)[C@@H](O)[C@H]2O)c(=O)n1` [azacitidine]: the “RFU PLEKHG5 (11737974_s_at)” value came to 50.98 RFU.
